This is an account of results in US4806556A, “Gut-selective opiates” (Regents of the University of Minnesota, priority 1987, dated 1989).

In experiment [1] the test system is electrically-stimulated guinea pig ileum (GPI) preparations. Put plainly: Antagonist activity: displacement of the morphine concentration-response curve on guinea pig ileum preparation. To be noted: for Antagonism (Morphine IC50 Ratio): factor by which the morphine concentration-response curve is shifted to higher concentration: IC50 of morphine with antagonist / control IC50, 3 determinations.

Experiment [2] shares this test system. Put plainly: Agonist activity: inhibition of contraction of electrically-stimulated guinea pig ileum (GPI) preparation, compared to morphine. Also on record: Emax: dose or concentration left out as unconfirmed. As to conditions: for Emax: Cavia porcellus, read-out: Agonism: partial agonist, maximal response relative to that of morphine; for Agonism (Morphine = 1): potency factor for the inhibition of contraction relative to that of morphine: electrically stimulated guinea pig ileum, 3 determinations; for Agonist activity on GPI (in words): compared to morphine.

`O=C(O)CNN=C1CC[C@@]2(O)[C@H]3Cc4ccc(O)c5c4[C@@]2(CCN3CC2CC2)[C@H]1O5` [Compound 15, Naltrexazoneacetic acid]: in experiment [1] (ligand concentration 200 nM), the “Antagonism (Morphine IC50 Ratio): factor by which the morphine concentration-response curve is shifted to higher concentration” value worked out at 100. In addition, the Emax in experiment [2] lay within 30 to 60%.
In the case of `CN1CC[C@]23c4c5ccc(O)c4O[C@H]2C(NC(=O)/C=C/C(=O)O)CC[C@@]3(O)[C@H]1C5` (stereo partly drawn) [Compound 9], in experiment [1] (ligand concentration 200 nM), the “Antagonism (Morphine IC50 Ratio): factor by which the morphine concentration-response curve is shifted to higher concentration” value came to 1. In addition, the “Agonism (Morphine = 1): potency factor for the inhibition of contraction relative to that of morphine” value in experiment [2] turned out to be 1.5.
Take `NC(CC(=O)O)C(=O)NC1CCC2(O)C3Cc4ccc(O)c5c4C2(CCN3CC2CC2)C1O5` (stereo not drawn) [Compound 6]: the “Morphine antagonist activity on GPI (in words)” value in experiment [1] was “possible exception to this generality”. Also, the “Antagonism (Morphine IC50 Ratio): factor by which the morphine concentration-response curve is shifted to higher concentration” value in experiment [1] (ligand concentration 200 nM) amounted to 1. In experiment [2], the “Agonism (Morphine = 1): potency factor for the inhibition of contraction relative to that of morphine” value is 14.2.
For the compound `CN1CC[C@]23c4c5ccc(O)c4O[C@H]2C(NC(=O)C(N)CC(=O)O)CC[C@@]3(O)[C@H]1C5` (stereo partly drawn) [Compound 12], the “Antagonism (Morphine IC50 Ratio): factor by which the morphine concentration-response curve is shifted to higher concentration” value in experiment [1] (ligand concentration 200 nM) amounted to 1. The “Agonism (Morphine = 1): potency factor for the inhibition of contraction relative to that of morphine” value in experiment [2] was determined as 6.1.
As for `O=C(O)CN[C@@H]1CC[C@@]2(O)[C@H]3Cc4ccc(O)c5c4[C@@]2(CCN3CC2CC2)[C@H]1O5` [Compound 7, β-Naltrexamineacetic acid], the “Antagonism (Morphine IC50 Ratio): factor by which the morphine concentration-response curve is shifted to higher concentration” value in experiment [1] (ligand concentration = 20 nM) was determined as 2.4. For the same compound, in experiment [2], the Emax lay in the range of 30 to 60% and the “Agonist activity on GPI (in words)” value is listed as “submaximal responses relative to morphine”.
Take `N=C(N)NN=C1CC[C@@]2(O)[C@H]3Cc4ccc(O)c5c4[C@@]2(CCN3CC2CC2)[C@H]1O5` [Compound 16, Naltrexazone iminosemicarbazone]: the “Agonism (Morphine = 1): potency factor for the inhibition of contraction relative to that of morphine” value in experiment [2] stood at 29.
Consider `O=C(O)COCC(=O)NC1CC[C@@]2(O)[C@H]3Cc4ccc(O)c5c4[C@@]2(CCN3CC2CC2)[C@H]1O5` (stereo partly drawn) [Compound 4], for which, in experiment [1] (ligand concentration 200 nM), the “Antagonism (Morphine IC50 Ratio): factor by which the morphine concentration-response curve is shifted to higher concentration” value worked out at 34.8. Further, in experiment [2], the Emax fell in the range of 30 to 60% and the “Agonist activity on GPI (in words)” value is on record as “submaximal responses relative to morphine”.
For the compound `O=C(O)CCC(=O)NC1CC[C@@]2(O)[C@H]3Cc4ccc(O)c5c4[C@@]2(CCN3CC2CC2)[C@H]1O5` (stereo partly drawn) [Compound 1], the “Antagonism (Morphine IC50 Ratio): factor by which the morphine concentration-response curve is shifted to higher concentration” value in experiment [1] (ligand concentration 200 nM) came out at 11.0. In experiment [2], the Emax is 30 to 60% and the “Agonist activity on GPI (in words)” value is “submaximal responses relative to morphine”.
Consider `CN1CC[C@]23c4c5ccc(O)c4O[C@H]2C(NC(=O)/C=C\C(=O)O)CC[C@@]3(O)[C@H]1C5` (stereo partly drawn) [Compound 10], for which, in experiment [1] (ligand concentration 200 nM), the “Antagonism (Morphine IC50 Ratio): factor by which the morphine concentration-response curve is shifted to higher concentration” value was 1. Also, the “Agonism (Morphine = 1): potency factor for the inhibition of contraction relative to that of morphine” value in experiment [2] stood at 2.7.
For `CN1CC[C@]23c4c5ccc(O)c4O[C@H]2C(NC(=O)COCC(=O)O)CC[C@@]3(O)[C@H]1C5` (stereo partly drawn) [Compound 11], the “Antagonism (Morphine IC50 Ratio): factor by which the morphine concentration-response curve is shifted to higher concentration” value in experiment [1] (ligand concentration 200 nM) amounted to 1. Also, the “Agonism (Morphine = 1): potency factor for the inhibition of contraction relative to that of morphine” value in experiment [2] amounted to 3.1.
For `CN1CC[C@]23c4c5ccc(O)c4O[C@H]2C(NC(=O)CCC(=O)O)CC[C@@]3(O)[C@H]1C5` (stereo partly drawn) [Compound 8] the same measures were 1 and 1.6.
As for `O=C(O)/C=C/C(=O)NC1CC[C@@]2(O)[C@H]3Cc4ccc(O)c5c4[C@@]2(CCN3CC2CC2)[C@H]1O5` (stereo partly drawn) [Compound 3], in experiment [1] (ligand concentration = 20 nM), the “Antagonism (Morphine IC50 Ratio): factor by which the morphine concentration-response curve is shifted to higher concentration” value was 3.7. For the same compound, in experiment [2], the “Agonism (Morphine = 1): potency factor for the inhibition of contraction relative to that of morphine” value turned out to be 3.
Take `N=C(N)NCCCC(N)C(=O)N[C@@H]1CC[C@@]2(O)[C@H]3Cc4ccc(O)c5c4[C@@]2(CCN3CC2CC2)[C@H]1O5` (stereo partly drawn) [Compound 5, Arginyl-β-naltrexamine]: the “Antagonism (Morphine IC50 Ratio): factor by which the morphine concentration-response curve is shifted to higher concentration” value in experiment [1] (ligand concentration 200 nM) is listed as 4.0. Besides, in experiment [2], the Emax fell in the range of 30 to 60% and the “Agonist activity on GPI (in words)” value is given as “submaximal responses relative to morphine”.
